{"source": "paper PMC11052077", "about": "“Discovery of Dolutegravir Derivative against Liver Cancer via Inducing Autophagy and DNA Damage” (Molecules, 2024)", "key": {"Huh7 cells [1]": {"tested_on": "Huh7 cells", "experiment": "Plate clone formation assay", "assay_type": "cell-based, human", "conditions": "0, 2, 4, 8, 16, 32 μM, 48 h", "procedure": "To further assess the anti-proliferative activity of dolutegravir derivatives, LIVE/DEAD staining was conducted. Huh7 cells were treated with 5 μM or 10 μM of 5e and 5p for 24 h, followed by live and dead cell imaging and quantification. […] This may be attributed to significant cell proliferation suppression at 10 μM concentration, leading to a limited number of viable cells. Furthermore, to validate the impact of dolutegravir derivatives on cell proliferation, a plate clone formation assay was performed. Cells were exposed to various concentrations (0, 2, 4, 8, 16, and 32 μM) of 5e or 5p.\nHuh7 cells were seeded into 6-well plates at a density of 100–500 cells/well. After 10 days culture, cells were added with 5e or 5p at different concentrations (0, 2 μM, 4 μM, 8 μM, 16 μM, 32 μM) for 48 h. Then, cells were fixed by 4% paraformaldehyde and stained by Giemsa dye. An optical microscope was used to photograph cells and the clone numbers were counted."}, "[2]": {"tested_on": "HRM cells (human renal mesangial cells)", "experiment": "in vitro", "assay_type": "cell-based", "conditions": "20 µM", "procedure": "This study aimed to assess the anti-proliferative activity of dolutegravir-1,2,3-triazole derivatives on hepatocellular carcinoma cell lines, Huh7 and hepG2. A comprehensive CCK8 assay was employed to evaluate the impact of these compounds on cell viability, with cells treated at a concentration of 20 μM for 48 h. HRM cells, a normal cell line, were included as a control for comparative analysis. […]\n(§1) CCK8 assay was used to measure cell viability. Cells with a density of 1 × 10^4 cells/well were seeded on 96-well plates. After adhesion, cells were treated with different diluted compounds or vehicle control DMSO and continued to be cultured for 48 h or 72 h, respectively. Then, CCK8 reagent was added for one hour incubation at 37 °C with 5% CO2. Absorbance was measured using a Microplate spectrophotometer (Thermo, Waltham, MA, USA) at 450 nm. The ratio of cell viability of control was taken as 100%. […] Then, IC50 of compounds were investigated using the prism statistical software 7.0."}, "Caspase3": {"tested_on": "Caspase3", "experiment": "Western blot, Caspase3", "assay_type": "cell-based, human", "conditions": "2, 4, 8 μM, 48 h, Huh7, western blot", "procedure": "(§2) To elucidate the impact of compounds 5e and 5p on the regulation of cell proliferation, we examined the expression levels of key proteins involved in cell growth processes, encompassing autophagy, apoptosis, cell cycle, and DNA damage (Figure 7).\n(§3) Protein expression levels were measured by western blot. Huh7 cells were cultured in 12-well plates and different concentrations (0, 2, 4, 8 μM) of 5e and 5p were added for 48 h. Proteins were extracted from whole cells using radio-immunoprecipitation assay (RIPA) buffer containing a protease/phosphatase inhibitor cocktail (CST). Then, 10–15% sodium dodecyl sulfate polyacrylamide gel electrophoresis and nitrocellulose membranes (Millipore) were employed to separate and collect proteins. Antibodies used include LC3 (3868s, CST), Caspase3 (9662, CST), cyclin D (2922s, CST), cyclin E (20808s, CST), γH2AX (9718s, CST), β-Catenin (9562s, CST), and β-actin (4967s, CST)."}, "[3]": {"tested_on": "Cyclin D, Cyclin E, β-catenin", "experiment": "Western blot, cell cycle-related proteins", "assay_type": "cell-based, human", "conditions": "2, 4, 8 μM, 48 h, Huh7, western blot", "procedure": "as §2, §3"}, "Huh7 cells [4]": {"tested_on": "Huh7 cells", "experiment": "Apoptosis assay, Annexin V-FITC/PI flow cytometry", "assay_type": "cell-based, human", "conditions": "48 h", "procedure": "Given the observed inhibitory effects of compounds 5e and 5p on cancer cell proliferation, we further investigated their impact on cell apoptosis. Apoptosis analysis was conducted on Huh7 cells treated with varying concentrations of 5e or 5p, utilizing Annexin V-FITC and PI staining, followed by flow cytometry to quantify apoptotic cells.\nHuh7 cells were cultured in 6-well plates with a density of 3 × 10^5 cells/well. Different concentrations of 5e or 5p were added to cells for 48 h, respectively. The concentrations were 0, 2, 4, and 8 μM for Huh7 cells. After treatment, Annexin V-FITC Apoptosis Detection Kit (Elabscience, Wuhan, China) was used to determine the apoptotic ratio and FlowJo software v10 was used to analyze."}, "hepG2 cells": {"tested_on": "hepG2 cells", "experiment": "CCK8 cell viability assay, hepG2", "assay_type": "cell-based, human", "procedure": "(§4) This study aimed to assess the anti-proliferative activity of dolutegravir-1,2,3-triazole derivatives on hepatocellular carcinoma cell lines, Huh7 and hepG2. A comprehensive CCK8 assay was employed to evaluate the impact of these compounds on cell viability, with cells treated at a concentration of 20 μM for 48 h. HRM cells, a normal cell line, were included as a control for comparative analysis.\n(§5) Human hepatocellular carcinoma cell lines Huh7 and hepG2 were obtained from ATCC (Manassas, VA, USA). Cells were cultured in DMEM or RPMI 1640 medium containing 10% FBS and 1% penicillin/streptomycin at 37 °C with a 5% CO2-humidified atmosphere.\nas §1"}, "Huh7 cells [5]": {"tested_on": "Huh7 cells", "experiment": "Cellular ROS measurement (DCFH-DA)", "assay_type": "cell-based, human", "conditions": "5, 10 and 20 μM, 24 h, Huh7, DCFH-DA staining", "procedure": "Reactive oxygen species (ROS) play a crucial role in inducing cell death and inhibiting cell growth and proliferation. To investigate the impact of compounds 5e and 5p on ROS generation, various cancer cells were treated with 5e or 5p for 24 h. Subsequently, cells were stained with DCFDA [26], and ROS levels were visualized using a fluorescent microscope (Thermo, Beijing, China).\nHuh7 cells were cultured in 96-well plates in a density of 5 × 10^3 cells/well. Different concentrations (0, 5, 10 and 20 μM) of 5e or 5p were added to cells, respectively, for 24 h. After treatment, cells were stimulated with 10 μM DCFH-DA for 30 min in 37 °C and then observed and photographed using the fluorescent microscope."}, "Huh7 cells [6]": {"tested_on": "Huh7 cells", "experiment": "Cell cycle assay, PI staining flow cytometry", "assay_type": "cell-based, human", "conditions": "8 μM, 48 h", "procedure": "To further investigate the effects of compounds 5e and 5p on regulation of the cell cycle, we treated cancer cells with different concentrations of 5e or 5p for 48 h and then analyzed cell cycle distribution using flow cytometry.\nHuh7 cells were cultured in 6-well plates with a density of 3 × 10^5 cells/well. Cells were treated with different concentrations (0, 4, and 8 μM for Huh7) of 5e or 5p for 48 h respectively. Then the cell cycle was determined by PI staining using the flow cytometer(Thermo, Beijing, China)."}, "Huh7 cells [7]": {"tested_on": "Huh7 cells", "experiment": "CCK8 cell viability assay, Huh7", "assay_type": "cell-based, human", "procedure": "as §4, §5, §1"}, "LC3": {"tested_on": "LC3", "experiment": "Western blot, LC3", "assay_type": "cell-based, human", "conditions": "2, 4, 8 μM, 48 h, Huh7, western blot", "procedure": "as §2, §3"}}, "data": [{"smiles": "COc1c2n(cc(C(=O)Nc3cccc(-c4cn(-c5cccc(C(F)(F)F)c5)nn4)c3)c1=O)CC1OCCC(C)N1C2=O", "note": "(centres unmarked) [Compound 5p]", "values": [{"measurement": "plate clone formation", "setting": "Huh7 cells [1]", "value": "dose-dependent anti-proliferative activity"}, {"measurement": "Cell Viability (100%), 20 μM, 48 h, HRM", "setting": "[2]", "value": 16.33, "unit": "%"}, {"measurement": "Caspase3 protein expression", "setting": "Caspase3", "value": "remained unchanged"}, {"measurement": "Cyclin D, Cyclin E or β-catenin expression", "setting": "[3]", "value": "no significant differences"}, {"measurement": "apoptosis in Huh7 cells", "setting": "Huh7 cells [4]; 2 μM", "value": "no significant impact"}, {"measurement": "apoptosis in Huh7 cells", "setting": "Huh7 cells [4]; 4 μM", "value": "remarkable apoptosis"}, {"measurement": "apoptosis in Huh7 cells", "setting": "Huh7 cells [4]; 8 μM", "value": "remarkable apoptosis"}, {"measurement": "Cell Viability (100%), 20 μM, 48 h, hepG2", "setting": "hepG2 cells; 20 μM, hepG2, CCK8, control taken as 100%", "value": 30.66, "unit": "%"}, {"measurement": "IC50", "setting": "hepG2 cells; 48 h, hepG2, CCK8, read-out: half maximal inhibitory concentration (IC50), hepG2", "value": "4.83 ± 1.17", "unit": "µM"}, {"measurement": "ROS generation", "setting": "Huh7 cells [5]", "value": "significant increase in ROS generation"}, {"measurement": "effect on S phase of cell cycle", "setting": "Huh7 cells [6]", "value": "clearly decreased phase of S"}, {"measurement": "Cell Viability (100%), 20 μM, 48 h, Huh7", "setting": "Huh7 cells [7]; 20 μM, Huh7, CCK8, control taken as 100%", "value": 5.93, "unit": "%"}, {"measurement": "IC50", "setting": "Huh7 cells [7]; 48 h, Huh7, CCK8, read-out: half maximal inhibitory concentration (IC50), Huh7", "value": "5.42 ± 0.43", "unit": "µM"}, {"measurement": "LC3 protein expression", "setting": "LC3", "value": "significant increase in expression"}]}]}
